Measurements taken from PubChem BioAssay AID248 (DTP/NCI, 2004).
Values joined by “and” are separate entries in the source; they are usually repeats but may differ in a detail not shown here. Equal entries are not always repeated. Inconclusive results and toxic doses are left out.

Test system: L1210 leukemia ip in BDF1 mice, survival T/C
Experiment: NCI In Vivo Anticancer Drug Screen. Data for tumor model L1210 Leukemia (intraperitoneal) in B6D2F1 (BDF1) mice
Conditions: higher = longer survival
Outline: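 Ratio derived from survival: compound-dosed mice over vehicle-dosed mice, all bearing a transplantable tumor.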

[1] = endpoint: mean survival time, dose: 100.0 mg/kg/injection, schedule: Q04DX002 (ip), vehicle: Klucel (hydroxypropylcellulose) (HPC)
[2] = endpoint: mean survival time, dose: 200.0 mg/kg/injection, schedule: Q04DX002 (ip), vehicle: Klucel (hydroxypropylcellulose) (HPC)
[3] = endpoint: mean survival time, dose: 100.0 mg/kg/injection, schedule: Q01DX009 (ip), vehicle: saline with Tween-80
[4] = endpoint: mean survival time, dose: 100.0 mg/kg/injection, schedule: Q04DX003 (ip), vehicle: saline with Tween-80
[5] = endpoint: mean survival time, dose: 200.0 mg/kg/injection, schedule: Q01DX009 (ip), vehicle: saline with Tween-80
[6] = endpoint: mean survival time, dose: 200.0 mg/kg/injection, schedule: Q04DX003 (ip), vehicle: saline with Tween-80
[7] = endpoint: mean survival time, dose: 400.0 mg/kg/injection, schedule: Q04DX003 (ip), vehicle: saline with Tween-80

For `CCOc1ccc(-n2c(=O)c(N=Nc3ccc(Br)cc3)c(O)n(-c3ccc(C)cc3)c2=S)cc1`, the T/C (endpoint: mean survival time, dose: 50.0 mg/kg/injection, schedule: Q01DX001 (ip), vehicle: Klucel (hydroxypropylcellulose) (HPC)) was 95 % of control, the T/C (endpoint: mean survival time, dose: 100.0 mg/kg/injection, schedule: Q01DX001 (ip), vehicle: Klucel (hydroxypropylcellulose) (HPC)) was 101 % of control and the T/C (endpoint: mean survival time, dose: 200.0 mg/kg/injection, schedule: Q01DX001 (ip), vehicle: Klucel (hydroxypropylcellulose) (HPC)) was 101 % of control.

For `C=CS(=O)(=O)c1ccc2ccccc2c1`, the T/C (endpoint: mean survival time, dose: 10.0 mg/kg/injection, schedule: Q04DX002 (ip), vehicle: Klucel (hydroxypropylcellulose) (HPC)) was 118 % of control, the T/C (endpoint: mean survival time, dose: 20.0 mg/kg/injection, schedule: Q04DX002 (ip), vehicle: Klucel (hydroxypropylcellulose) (HPC)) was 96 % of control and the T/C (endpoint: mean survival time, dose: 40.0 mg/kg/injection, schedule: Q04DX002 (ip), vehicle: Klucel (hydroxypropylcellulose) (HPC)) was 100 % of control.

With `CCCCOP(=O)(/C=C/c1ccccc1)OCCCC` the T/C (endpoint: mean survival time, dose: 100.0 mg/kg/injection, schedule: Q04DX002 (ip), vehicle: saline with Tween-80) was 122 % of control and the T/C (endpoint: mean survival time, dose: 200.0 mg/kg/injection, schedule: Q04DX002 (ip), vehicle: saline with Tween-80) was 91 % of control.

For `CC(C)(C)OC1C2C=CC1C1C2C(C)(C)C1(C)C` (stereo not given), the T/C (endpoint: mean survival time, dose: 100.0 mg/kg/injection, schedule: Q01DX001 (ip), vehicle: saline with Tween-80) was 90 % of control and the T/C (endpoint: mean survival time, dose: 200.0 mg/kg/injection, schedule: Q01DX001 (ip), vehicle: saline with Tween-80) was 90 % of control.

In the case of `O=[N+]([O-])c1cc2ccccc2o1`, the T/C (endpoint: mean survival time, dose: 50.0 mg/kg/injection, schedule: Q04DX002 (ip), vehicle: Klucel (hydroxypropylcellulose) (HPC)) is reported as 88 % of control, the T/C [1] is reported as 97 % of control and the T/C [2] is reported as 93 % of control.

In the case of `CC(C)N(C(=O)Nc1cc(C(F)(F)F)ccc1Cl)C1CCCCC1`, the T/C (endpoint: mean survival time, dose: 100.0 mg/kg/injection, schedule: Q01DX001 (ip), vehicle: carboxymethylcellulose (CMC)) is reported as 95 % of control, the T/C (endpoint: mean survival time, dose: 100.0 mg/kg/injection, schedule: Q01DX009 (ip), vehicle: carboxymethylcellulose (CMC)) is reported as 92 % of control and 88 % of control and the T/C (endpoint: mean survival time, dose: 100.0 mg/kg/injection, schedule: Q04DX002 (ip), vehicle: carboxymethylcellulose (CMC)) is reported as 97 % of control. The T/C (endpoint: mean survival time, dose: 100.0 mg/kg/injection, schedule: Q04DX003 (ip), vehicle: carboxymethylcellulose (CMC)) was 96 % of control, the T/C (endpoint: mean survival time, dose: 200.0 mg/kg/injection, schedule: Q01DX001 (ip), vehicle: carboxymethylcellulose (CMC)) was 90 % of control and the T/C (endpoint: mean survival time, dose: 200.0 mg/kg/injection, schedule: Q01DX009 (ip), vehicle: carboxymethylcellulose (CMC)) was 93 % of control and 100 % of control. For the same compound, the T/C (endpoint: mean survival time, dose: 200.0 mg/kg/injection, schedule: Q04DX002 (ip), vehicle: carboxymethylcellulose (CMC)) was 98 % of control and 108 % of control, the T/C (endpoint: mean survival time, dose: 200.0 mg/kg/injection, schedule: Q04DX003 (ip), vehicle: carboxymethylcellulose (CMC)) was 96 % of control and the T/C (endpoint: mean survival time, dose: 400.0 mg/kg/injection, schedule: Q01DX001 (ip), vehicle: carboxymethylcellulose (CMC)) was 93 % of control. The T/C (endpoint: mean survival time, dose: 400.0 mg/kg/injection, schedule: Q01DX009 (ip), vehicle: carboxymethylcellulose (CMC)) was 95 % of control, the T/C (endpoint: mean survival time, dose: 400.0 mg/kg/injection, schedule: Q04DX002 (ip), vehicle: carboxymethylcellulose (CMC)) was 87 % of control and 90 % of control and the T/C (endpoint: mean survival time, dose: 400.0 mg/kg/injection, schedule: Q04DX003 (ip), vehicle: carboxymethylcellulose (CMC)) was 91 % of control.

In the case of `Cn1c(CO)cc2ccccc21`, the T/C [3] is reported as 98 % of control, the T/C [4] is reported as 96 % of control and the T/C [5] is reported as 98 % of control. The T/C [6] was 96 % of control, the T/C (endpoint: mean survival time, dose: 400.0 mg/kg/injection, schedule: Q01DX009 (ip), vehicle: saline with Tween-80) was 88 % of control and the T/C [7] was 98 % of control.

With `CCOC(=O)c1c(C)c(C(=O)CC)c(C)n1C(=O)c1ccccc1` the T/C (endpoint: mean survival time, dose: 100.0 mg/kg/injection, schedule: Q01DX001 (ip), vehicle: saline) was 100 % of control, the T/C (endpoint: mean survival time, dose: 200.0 mg/kg/injection, schedule: Q01DX001 (ip), vehicle: saline) was 102 % of control and the T/C (endpoint: mean survival time, dose: 400.0 mg/kg/injection, schedule: Q01DX001 (ip), vehicle: saline) was 96 % of control.

In the case of `COC(=O)Nc1cccc(-c2nc3ccc(NC(=O)OC)cc3c(=O)n2-c2ccccc2)c1`, the T/C (endpoint: mean survival time, dose: 6.25 mg/kg/injection, schedule: Q01DX009 (ip), vehicle: Klucel (hydroxypropylcellulose) (HPC)) is reported as 94 % of control and 98 % of control, the T/C (endpoint: mean survival time, dose: 12.5 mg/kg/injection, schedule: Q01DX009 (ip), vehicle: Klucel (hydroxypropylcellulose) (HPC)) is reported as 97 % of control and 101 % of control and the T/C (endpoint: mean survival time, dose: 25.0 mg/kg/injection, schedule: Q01DX009 (ip), vehicle: Klucel (hydroxypropylcellulose) (HPC)) is reported as 102 % of control and 88 % of control. For the same compound, the T/C (endpoint: mean survival time, dose: 25.0 mg/kg/injection, schedule: Q01DX009 (ip), vehicle: other) was 113 % of control, the T/C (endpoint: mean survival time, dose: 25.0 mg/kg/injection, schedule: Q01DX009 (oral), vehicle: Klucel (hydroxypropylcellulose) (HPC)) was 93 % of control and 97 % of control and the T/C (endpoint: mean survival time, dose: 25.0 mg/kg/injection, schedule: Q04DX003 (ip), vehicle: saline) was 97 % of control. The T/C (endpoint: mean survival time, dose: 50.0 mg/kg/injection, schedule: Q01DX009 (ip), vehicle: Klucel (hydroxypropylcellulose) (HPC)) was 120 % of control, the T/C (endpoint: mean survival time, dose: 50.0 mg/kg/injection, schedule: Q01DX009 (ip), vehicle: other) was 114 % of control and the T/C (endpoint: mean survival time, dose: 50.0 mg/kg/injection, schedule: Q01DX009 (oral), vehicle: Klucel (hydroxypropylcellulose) (HPC)) was 102 % of control. For the same compound, the T/C (endpoint: mean survival time, dose: 50.0 mg/kg/injection, schedule: Q04DX003 (ip), vehicle: saline) was 101 % of control, the T/C (endpoint: mean survival time, dose: 100.0 mg/kg/injection, schedule: Q01DX009 (oral), vehicle: Klucel (hydroxypropylcellulose) (HPC)) was 97 % of control and 101 % of control and the T/C (endpoint: mean survival time, dose: 100.0 mg/kg/injection, schedule: Q04DX003 (ip), vehicle: saline) was 103 % of control and 107 % of control. The T/C (endpoint: mean survival time, dose: 200.0 mg/kg/injection, schedule: Q01DX009 (oral), vehicle: Klucel (hydroxypropylcellulose) (HPC)) was 104 % of control and 121 % of control, the T/C (endpoint: mean survival time, dose: 200.0 mg/kg/injection, schedule: Q01DX009 (oral), vehicle: other) was 105 % of control and the T/C (endpoint: mean survival time, dose: 200.0 mg/kg/injection, schedule: Q04DX003 (ip), vehicle: saline) was 110 % of control. The T/C (endpoint: mean survival time, dose: 300.0 mg/kg/injection, schedule: Q01DX009 (oral), vehicle: other) was 102 % of control, the T/C (endpoint: mean survival time, dose: 400.0 mg/kg/injection, schedule: Q01DX009 (oral), vehicle: Klucel (hydroxypropylcellulose) (HPC)) was 116 % of control and 121 % of control and the T/C (endpoint: mean survival time, dose: 400.0 mg/kg/injection, schedule: Q01DX009 (oral), vehicle: other) was 116 % of control. The T/C (endpoint: mean survival time, dose: 400.0 mg/kg/injection, schedule: Q04DX003 (ip), vehicle: saline) was 110 % of control, the T/C (endpoint: mean survival time, dose: 500.0 mg/kg/injection, schedule: Q01DX009 (oral), vehicle: other) was 102 % of control and the T/C (endpoint: mean survival time, dose: 800.0 mg/kg/injection, schedule: Q01DX009 (oral), vehicle: Klucel (hydroxypropylcellulose) (HPC)) was 119 % of control and 120 % of control. For the same compound, the T/C (endpoint: median survival time, dose: 25.0 mg/kg/injection, schedule: Q01DX009 (oral), vehicle: saline) was 103 % of control, the T/C (endpoint: median survival time, dose: 50.0 mg/kg/injection, schedule: Q01DX009 (oral), vehicle: saline) was 102 % of control and the T/C (endpoint: median survival time, dose: 100.0 mg/kg/injection, schedule: Q01DX009 (oral), vehicle: saline) was 104 % of control. The T/C (endpoint: median survival time, dose: 100.0 mg/kg/injection, schedule: Q04DX003 (ip), vehicle: other) was 158 % of control, the T/C (endpoint: median survival time, dose: 100.0 mg/kg/injection, schedule: Q04DX003 (ip), vehicle: saline) was 185 % of control and the T/C (endpoint: median survival time, dose: 200.0 mg/kg/injection, schedule: Q01DX009 (oral), vehicle: saline) was 104 % of control. For the same compound, the T/C (endpoint: median survival time, dose: 200.0 mg/kg/injection, schedule: Q04DX003 (ip), vehicle: Klucel (hydroxypropylcellulose) (HPC)) was 158 % of control, the T/C (endpoint: median survival time, dose: 200.0 mg/kg/injection, schedule: Q04DX003 (ip), vehicle: other) was 119 % of control and the T/C (endpoint: median survival time, dose: 200.0 mg/kg/injection, schedule: Q04DX003 (ip), vehicle: saline with Tween-80) was 154 % of control. The T/C (endpoint: median survival time, dose: 200.0 mg/kg/injection, schedule: Q04DX003 (oral), vehicle: saline) was 113 % of control, the T/C (endpoint: median survival time, dose: 300.0 mg/kg/injection, schedule: Q04DX003 (oral), vehicle: saline) was 123 % of control and the T/C (endpoint: median survival time, dose: 400.0 mg/kg/injection, schedule: Q04DX003 (ip), vehicle: Klucel (hydroxypropylcellulose) (HPC)) was 178 % of control. For the same compound, the T/C (endpoint: median survival time, dose: 400.0 mg/kg/injection, schedule: Q04DX003 (ip), vehicle: saline with Tween-80) was 190 % of control and the T/C (endpoint: median survival time, dose: 400.0 mg/kg/injection, schedule: Q04DX003 (oral), vehicle: saline) was 112 % of control.

For `Nc1c(F)c(F)c(-c2c(F)c(F)c(N)c(F)c2F)c(F)c1F`, the T/C (endpoint: mean survival time, dose: 37.5 mg/kg/injection, schedule: Q04DX003 (ip), vehicle: saline with Tween-80) was 98 % of control, the T/C (endpoint: mean survival time, dose: 75.0 mg/kg/injection, schedule: Q04DX003 (ip), vehicle: saline with Tween-80) was 102 % of control and the T/C (endpoint: mean survival time, dose: 150.0 mg/kg/injection, schedule: Q04DX003 (ip), vehicle: saline with Tween-80) was 95 % of control.

`COC1OC2COC(c3ccccc3)OC2C(NC(C)=O)C1O` (stereo not given) was tested, and the T/C [1] was 101 % of control, the T/C [2] was 111 % of control and the T/C (endpoint: mean survival time, dose: 400.0 mg/kg/injection, schedule: Q04DX002 (ip), vehicle: Klucel (hydroxypropylcellulose) (HPC)) was 105 % of control.

With `Cc1ccccc1NC=O` the T/C [3] was 101 % of control, the T/C [4] was 87 % of control and the T/C [5] was 101 % of control. The T/C [6] was 91 % of control and the T/C [7] was 100 % of control.
